Results taken from patent US20240066006A1, “Antiviral Compounds and Applications Thereof” (priority 2020, published 2024).
Read-outs that look alike come from different tables or passages of the source.

Assays:
[1] = system: MHV-1; assay: Viral titer by plaque assay, DBT cells infected with MHV-1; assay type: cell-based, murine hepatitis virus
[2] = system: MHV-1; assay: Syncytium formation in DBT cells infected with MHV-1 (microscopy images); assay type: cell-based, murine hepatitis virus; details: for inhibitory effect on syncytium formation and cell-cell fusion / inhibitory effect on syncytium formation and fusion: DBT cells pre-treated three hours, 893 10 μM, images at 48 hours; for inhibitory effect on syncytium formation and cell-cell fusion: NAV2729 5 μM, SecinH3 30 μM; for inhibitory effect on syncytium formation and fusion: YM201636 400 nM, apilimod 50 nM; for syncytium formation induced by MHV-1: DBT cells, 4 μM
[3] = system: ACE2 receptor; assay type: cell-based; details: pre-treated VeroE6 cells
[4] = in vivo; details: po
[5] = Pharmacokinetics and tissue levels upon oral administration
[6] = in vivo
[7] = system: MHV-1; assay: MHV-1 intranasal infection of male A/J mice, lung viral titer and lung weight; details: 120 mg/kg by gavage 6 hours prior to and 18 hours after infection, 500 pfu MHV-1 intranasally, 24 hours post-infection
[8] = system: MHV-A59; assay type: cell-based, murine hepatitis virus; details: DBT cells, MOI 0.1, plaque assay at 24 or 48 hours
[9] = Serum protein binding; assay type: in vitro ADME
[10] = system: endolysosomal trafficking; assay: Inhibition of endolysosomal trafficking in vitro; assay type: cell-based
[11] = system: MHV-A59; assay: Syncytium formation in DBT cells infected with MHV-A59 (phase contrast microscopy); assay type: cell-based, murine hepatitis virus; details: 4 μM, MOI 0.1, 24 hours post infection
Description: To determine whether PP2A activation mitigates syncytium formation induced by coronaviruses, DBT cells were treated with 4 μM of compound 893 before or after infection with MHV-A59 at a multiplicity of infection (MOI) of 0.1 and then assessed for syncytium formation via phase contrast microscopy 24 hours post infection.

[12] = Resistance to metabolism
[13] = DBT cells pre-treated three hours, 893 10 μM, NAV2729 5 μM, SecinH3 30 μM, plaque assay 48 hours post infection
[14] = after viral infection (post-treatment)

With `OCCN1CCN(CCCN2c3ccccc3Sc3ccc(Cl)cc32)CC1` [PPZ, perphenazine, reference compound] the “reduction of viral titers of MHV-1” value ([1]; DBT cells, pretreatment with PP2A agonist) was “to a degree similar to that of compound 893” and the “syncytium formation and fusion” value ([2]; DBT cells infected with MHV-1, pretreatment with PP2A agonist) was “as efficiently as compound 893”.

In the case of `COc1nc(-c2ccc3c(c2)OCO3)n(-c2ccc(NC(=O)CSc3ccccc3)cc2)n1` [SecinH3, reference compound], the “reduction of viral titers of MHV-1” value [1, 13] is reported as “about 1 log” and the “inhibitory effect on syncytium formation and cell-cell fusion” value [2] is reported as “inhibitory effect”.

For `Nc1ccc(C(=O)Nc2cccc(-c3nc(N4CCOCC4)c4oc5ncccc5c4n3)c2)cn1` [YM201636], the “inhibitory effect on syncytium formation and fusion” value [2] was “inhibitory effect”.

For `Cc1cccc(/C=N/Nc2cc(N3CCOCC3)nc(OCCc3ccccn3)n2)c1` [apilimod], the “inhibitory effect on syncytium formation and fusion” value [2] was “inhibitory effect”.

For `CCCCCCCCc1ccc([C@H]2CCN[C@@H]2CO)cc1.Cl` [compound 893], the “ACE2 receptor localization at the outer cell membrane” value [3] was “reduction of ACE2 receptor localization at the outer cell membrane”, the half-life [4] was 10.6 h and the “total drug levels in the lungs relative to concentration required in vitro” value ([5]; compared with 1-10 μM required in vitro) was 300 fold. For the same compound, the concentration at 5 days ([5]; lungs, brain, liver (many tissues), po, 120 mg/kg) was over 100 µM, the “reduction of viral titers of MHV-1” value [1, 13] was about 3 log and the “reduction of viral titers of MHV-1” value ([1]; DBT cells pre-treated three hours, 893 10 μM, YM201636 400 nM, apilimod 50 nM, plaque assay 48 hours post infection) was about 3 logs. For the same compound, the “reduction of viral titers of MHV-1” value ([1]; DBT cells, 4-5 μM added one hour after infection, MOI 0.1, plaque assay at 24 or 48 hours) was 3-4 logs, the “reduction of viral titers of MHV-1” value ([1]; DBT cells, 4-5 μM for three hours prior to infection, MOI 0.1, washed 1 hour after infection, plaque assay at 24 or 48 hours) was 3-4 logs and the oral bioavailability [6] was “orally bioavailable”. For the same compound, the lung weight [7] was “reduced lung weight”, the “reduction in infectious virus within the lungs” value [7] was 2 log and the “reduction of viral titers of MHV-A59” value ([8]; 4-5 μM added one hour after infection) was 3-4 logs. The “reduction of viral titers of MHV-A59” value ([8]; 4-5 μM for three hours prior to infection, washed 1 hour after infection) was 3-4 logs, the “inhibitory effect on syncytium formation and cell-cell fusion” value [2] was “inhibitory effect” and the “inhibitory effect on syncytium formation and fusion” value [2] was “greater for 893 than for YM201636 or apilimod”. The “syncytium formation induced by MHV-1” value [2, 14] was “potently prevented syncytium formation”, the “syncytium formation induced by MHV-1” value ([2]; pre-treatment) was “potently prevented syncytium formation” and the “binding by serum proteins” value [9] was “highly bound by serum proteins”. The “concentration required to inhibit endolysosomal trafficking” value [10] was 1 to 10 µM, the “syncytium formation induced by MHV-A59” value [11, 14] was “potently prevented syncytium formation” and the “syncytium formation induced by MHV-A59” value ([11]; pre-treatment) was “potently prevented syncytium formation”. For the same compound, the resistance to metabolism [12] was “resistant to metabolism”.

For NAV2729 [reference compound], the “reduction of viral titers of MHV-1” value [1, 13] was “about 1 log” and the “inhibitory effect on syncytium formation and cell-cell fusion” value [2] was “inhibitory effect”.
